US11806342B2, “Diiodohydroxyquinoline for the treatment of clostridium difficile infection” (Purdue Research Foundation, priority 2019, dated 2023)
Values after ≈ are worked out from the molar mass of the structure shown.

Key:
[1] = test system: 38 tested C. difficile strains; assay: MIC and MBC over the panel of clinical isolates (MIC50, MIC90, range); assay type: cell-based, Clostridium difficile; conditions: Clostridioides difficile
Method: MIC50 and MIC90 are the minimum concentration of each agent that inhibited growth of 50% and 90% of the tested isolates, respectively. The minimum bactericidal concentration (MBC) of these drugs was tested by plating 5 μL from wells with no growth onto BHIS agar plates. The MBC was categorized as the lowest concentration that reduced bacterial growth by 99.9% MIC50 and MIC90 are the minimum concentration of each agent that inhibited the growth of 50% and 90% of the tested isolates, respectively. The minimum bactericidal concentration (MBC) of these drugs was tested by plating 5 μL from wells with no growth onto BHIS agar plates. The MBC was categorized as the lowest concentration that reduced bacterial growth by 99.9% [29-31].

[2] = test system: C. difficile ATCC 43255; assay: Spore inhibition assay; assay type: cell-based, Clostridium difficile; conditions: five days
Method: (§1) The spore inhibition assay was performed as described in previous reports to investigate the effect of diiodohydroxyquinoline on C. difficile spore formation. Briefly, […], the bacterial suspension was split into microcentrifuge tubes and drugs were added (in triplicates) at concentrations equal to ½×MIC or 1×MIC. Tubes were then, incubated anaerobically for five days at 37° C. Thereafter, an aliquot from each tube was diluted and plated on BHIS agar plates supplemented with 0.1% taurocholic acid, to count the total bacterial counts (vegetative bacteria+spores). The remaining solution was centrifuged, and the pellet was suspended in PBS, stored overnight at 4° C., and subsequently shock-heated at 70° C. for 30 minutes to kill the vegetative cells. The resulting solution was serially diluted and plated to determine the heat-resistant spore counts. Spore inhibition assay was performed as described in previous reports to investigate the effect of DIHQ on C. difficile spore formation. Briefly, log-phase cultures of C. difficile strains (ATCC BAA-1870, ATCC 43255, and NR-49277) were diluted in BHIS to an initial density of ˜10^6 CFU/mL. Afterwards, the bacterial suspension was split in small tubes and the drugs were added (in triplicates) at concentrations equal to ½×MIC or 1×MIC. Tubes were then incubated anaerobically for 5 days at 37° C. After that, an aliquot from each tube was diluted and plated on BHIS agar plates supplemented with 0.1% taurocholic acid, to count the total bacterial count (vegetative bacteria+spores). The remaining solution was centrifuged, and the pellet was suspended in PBS and stored overnight at 4° C. then shock heated at 70° C. for 30 minutes to kill the vegetative cells. The resulting solution was serially diluted and plated to determine the heat-resistant spore counts.

[3] = test system: C. difficile ATCC BAA-1870; assay: Spore inhibition assay; assay type: cell-based, Clostridium difficile; conditions: five days
Method: as §1

[4] = test system: C. difficile NR-49277; assay: Spore inhibition assay; assay type: cell-based, Clostridium difficile; conditions: five days
Method: as §1

[5] = test system: Bacteroides dorei HM-717; assay: MIC against normal gut microflora, broth microdilution; assay type: cell-based; conditions: Phocaeicola dorei, HM717; Bacteroides dorei HM-717; read-out: MIC
Method: (§2) In vitro antimicrobial evaluation of diiodohydroxyquinoline against normal microflora. The broth microdilution assay was utilized to determine the MICs of DIHQ and control antibiotics against commensal organisms that compose he human gut microflora, as described elsewhere. A bacterial solution equivalent to 0.5 McFarland standard was prepared and diluted in BHIS broth (for Bifidobacterium and Bacteroides) or in MRS broth (for Lactobacillus) to achieve a bacterial concentration of about 5×10^5 CFU/mL. Then, drugs were added and serially diluted along the plates.

[6] = test system: Bacteroides dorei HM-718; assay: as above; assay type: cell-based; conditions: Phocaeicola dorei, HM718; Bacteroides dorei HM-718; read-out: MIC
Method: as §2

[7] = test system: Bacteroides fragilis HM-709; assay: as above; assay type: cell-based; conditions: HM709; Bacteroides fragilis HM-709; read-out: MIC
Method: as §2

[8] = test system: Bacteroides fragilis HM-711; assay: as above; assay type: cell-based; conditions: HM711; Bacteroides fragilis HM-711; read-out: MIC
Method: as §2

[9] = test system: Bifidobacterium angulatum HM-1189; assay: as above; assay type: cell-based; conditions: HM1189; Bifidobacterium angulatum HM-1189; read-out: MIC
Method: as §2

[10] = test system: Bifidobacterium breve HM-1120; assay: as above; assay type: cell-based; conditions: HM1120; Bifidobacterium breve HM-1120; read-out: MIC
Method: as §2

[11] = test system: Bifidobacterium breve HM-411; assay: as above; assay type: cell-based; conditions: HM411; Bifidobacterium breve HM-411; read-out: MIC
Method: as §2

[12] = test system: Bifidobacterium longum HM-847; assay: as above; assay type: cell-based; conditions: HM847; Bifidobacterium longum HM-847; read-out: MIC
Method: as §2

[13] = test system: Lactobacillus crispatus HM-371; assay: as above; assay type: cell-based; conditions: HM371; Lactobacillus crispatus HM-371; read-out: MIC
Method: as §2

SMILES: CCc1c(Cl)c(O)c(Cl)c(O)c1C(=O)O[C@H]1[C@H](O)[C@H](OC)[C@H](OC/C2=C\C=C\C[C@H](O)/C(C)=C/[C@H](CC)[C@@H](O[C@@H]3OC(C)(C)[C@@H](OC(=O)C(C)C)[C@H](O)[C@@H]3O)/C(C)=C/C(C)=C/C[C@@H]([C@@H](C)O)OC2=O)O[C@@H]1C [Fidaxomicin, fidaxomicin]
- MIC50 ([1]; concentration inhibiting growth of 50% of the tested isolates, read-out: MIC50): 0.015 µg/mL (≈ 0.0142 µM)
- MIC90 ([1]; concentration inhibiting growth of 90% of the tested isolates, read-out: MIC90): 0.06 µg/mL (≈ 0.0567 µM)
- reduction in spore count ([2]; C. difficile ATCC 43255, 1×MIC): ~1.8 log10
- reduction in spore count ([2]; C. difficile ATCC 43255, ½×MIC): ~0.75 log10
- reduction in spore count ([3]; C. difficile ATCC BAA-1870, 1×MIC): ~1.8 log10
- reduction in spore count ([3]; C. difficile ATCC BAA-1870, ½×MIC): ~1.02 log10
- reduction in spore count ([4]; C. difficile NR-49277, 1×MIC): ~1.27 log10
- reduction in spore count ([4]; C. difficile NR-49277, ½×MIC): ~0.8 log10
- MIC [5]: > 128 µg/mL
- MIC [6]: > 128 µg/mL
- MIC [7]: > 128 µg/mL
- MIC [8]: > 128 µg/mL
- MIC [9]: ≤ 1 µg/mL
- MIC [10]: ≤ 1 µg/mL
- MIC [11]: 2 µg/mL (≈ 1.89 µM)
- MIC [12]: ≤ 1 µg/mL
- MIC [13]: > 128 µg/mL
